The assay deals with USP30 (Homo sapiens (Human), UniProt Q70CQ3). The assay is described as follows: USP30 biochemical IC50 assay (fluorescence polarisation). The settings on record: enzyme and compound incubated 30 min at room temp; TAMRA labelled peptide-ubiquitin substrate 50 nM; read after 2 hr incubation; read-out: IC50 range. As for the experimental part:
USP30 Biochemical IC50 Assay
Dilution plates were prepared at 21 times the final concentration ([…] for a final concentration of 100 μM) in 50% DMSO in a 96-well polypropylene V-bottom plate (Greiner #651201). A typical 8-point dilution series to be 100, 30, 10, 3, 1, 0.3, 0.1, […].
Reactions were performed in duplicate in black 384 well plates (small volume, Greiner 784076) in a final reaction volume of 21 μl. Either 1 μl of 50% DMSO or diluted compound was added to the plate. USP30 was diluted in reaction buffer (40 mM Tris, pH 7.5, 0.005% Tween 20, 0.5 mg/ml BSA, 5 mM beta-mercaptoethanol) to the equivalent of 0.05 µl/well and 10 μl of diluted USP30 was added to the compound. Enzyme and compound were incubated for 30 min at room temp. Reactions were initiated by the addition of 50 nM of TAMRA labelled peptide linked to ubiquitin via an iso-peptide bond as fluorescence polarisation substrate. Reactions were read immediately after addition of substrate and following a 2 hr incubation at room temperature. Readings were performed on a Pherastar Plus (BMG Labtech). λ Excitation 540 nm; λ Emission 590 nm.
(In general: In fluorescence polarisation assays a small probe gives low polarisation when free and higher when bound to something large.)
Chain of USP30 (Q70CQ3 57-517): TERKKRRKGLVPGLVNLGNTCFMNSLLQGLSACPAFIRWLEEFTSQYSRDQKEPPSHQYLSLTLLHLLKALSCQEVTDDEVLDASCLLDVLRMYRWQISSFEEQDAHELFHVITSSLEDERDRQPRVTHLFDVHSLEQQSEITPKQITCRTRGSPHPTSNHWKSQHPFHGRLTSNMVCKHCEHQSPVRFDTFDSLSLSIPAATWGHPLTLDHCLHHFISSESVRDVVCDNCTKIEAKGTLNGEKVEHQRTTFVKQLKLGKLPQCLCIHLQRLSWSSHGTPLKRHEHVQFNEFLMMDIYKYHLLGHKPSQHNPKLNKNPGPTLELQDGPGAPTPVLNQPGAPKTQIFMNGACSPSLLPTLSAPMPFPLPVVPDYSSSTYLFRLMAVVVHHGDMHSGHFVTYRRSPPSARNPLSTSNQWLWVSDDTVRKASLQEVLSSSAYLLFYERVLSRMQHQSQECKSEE
For orientation: IC50 means the concentration at which inhibition is half-maximal. `N#CN1CCC(F)(C(=O)N2CCc3ccc(-c4ccccc4)cc32)C1` (stereo not shown) [Example 15, 3-Fluoro-3-(6-phenylindoline-1-carbonyl)pyrrolidine-1-carbonitrile]: the half-inhibitory concentration (IC50) was 100 to 1000 nM. On to `N#CN1CC[C@H](C(=O)N2CCc3cc(-c4cccc(Cl)c4)ccc32)C1` [Example 12, (S)-3-(5-(3-Chlorophenyl)indoline-1-carbonyl)pyrrolidine-1-carbonitrile], for which the half-maximal inhibitory concentration (IC50) was in the range of 100 to 1000 nM. With `C[C@H]1CN(C#N)C[C@@H]1C(=O)N1CCc2cc(-c3ccccc3)cnc21` (racemic) [Example 52, Trans-3-methyl-4-(5-phenyl-2,3-dihydro-1H-pyrrolo[2,3-b]pyridine-1-carbonyl)-pyrrolidine-1-carbonitrile] the figure was 100 to 1000 nM; with `N#CN1CCC(F)(C(=O)N2CCc3cc(-c4ccnn4Cc4ccc(Cl)cc4)ccc32)C1` (stereo not shown) [Example 66, 3-(5-(1-(4-Chlorobenzyl)-1H-pyrazol-5-yl)indoline-1-carbonyl)-3-fluoropyrrolidine-1-carbonitrile], 100 to 1000 nM. The result for `CN(C(=O)C1(F)CCN(C#N)C1)c1nc2ccccc2s1` (stereo not shown) [Example 9, N-(Benzo[d]thiazol-2-yl)-1-cyano-3-fluoro-N-methylpyrrolidine-3-carboxamide] reads 100 to 1000 nM. With `N#CN1CC[C@H](C(=O)N2CCc3cc(-c4ccccc4)ccc32)C1` [Example 18, (S)-3-(5-Phenylindoline-1-carbonyl)pyrrolidine-1-carbonitrile] the figure was 100 to 1000 nM; with `N#CN1CC[C@H](C(=O)N2CCc3c(-c4ccccc4)cccc32)C1` [Example 10, (S)-3-(4-Phenylindoline-1-carbonyl)pyrrolidine-1-carbonitrile], 100 to 1000 nM; with `N#CN1CC[C@H](C(=O)N2CCc3c(-c4ccccc4)ccnc32)C1` [Example 27, (S)-3-(4-Phenyl-2,3-dihydro-1H-pyrrolo[2,3-b]pyridine-1-carbonyl)pyrrolidine-1-carbonitrile], 100 to 1000 nM. Turning to `C[C@@H]1CN(C#N)C[C@H]1C(=O)N1CCc2cc(-c3ccccc3Cl)ccc21` (relative stereo) [Example 13, (trans)-3-(5-(2-Chlorophenyl)indoline-1-carbonyl)-4-methylpyrrolidine-1-carbonitrile], the half-maximal inhibitory concentration (IC50) lay within 100 to 1000 nM. Take `N#CN1CC[C@@H](C(=O)N2CCOc3ccc(-c4ccccc4)cc32)C1` [Example 25, (R)-3-(6-Phenyl-3,4-dihydro-2H-benzo[b][1,4]oxazine-4-carbonyl)pyrrolidine-1-carbonitrile]: the IC50 lay in the range of 100 to 1000 nM.

Consider `N#CN1CC[C@@H](C(=O)N2CCOc3cc(-c4ccccc4)ccc32)C1` [Example 24, (R)-3-(7-Phenyl-3,4-dihydro-2H-benzo[b][1,4]oxazine-4-carbonyl)pyrrolidine-1-carbonitrile], for which the IC50 lay in the range of 100 to 1000 nM. As for `N#CN1CC[C@H](C(=O)N2CCc3cc(-c4ccccc4)cnc32)C1` [Example 21, (S)-3-(5-Phenyl-2,3-dihydro-1H-pyrrolo[2,3-b]pyridine-1-carbonyl)pyrrolidine-1-carbonitrile], the half-maximal inhibitory concentration (IC50) lay within 1000 to 10000 nM.

Take `CCN(C(=O)C1CCN(C#N)C1)c1nc(-c2ccccc2)cs1` (stereo not shown) [Example 1, 1-Cyano-N-ethyl-N-(4-phenylthiazol-2-yl)pyrrolidine-3-carboxamide]: the 50% inhibitory concentration (IC50) fell in the range of 1000 to 10000 nM. For the compound `N#CN1CC[C@](F)(C(=O)N2CCc3cc(-c4ccccc4)ccc32)C1` [Example 54, (R)-3-Fluoro-3-(5-phenylindoline-1-carbonyl)pyrrolidine-1-carbonitrile], the IC50 lay within 100 to 1000 nM. For the compound `N#CN1CC[C@H](C(=O)N2CCc3cc(-c4cccc5[nH]ncc45)cnc32)C1` [Example 60, (S)-3-(5-(1H-indazol-4-yl)-2,3-dihydro-1H-pyrrolo[2,3-b]pyridine-1-carbonyl)-pyrrolidine-1-carbonitrile], the half-inhibitory concentration (IC50) fell in the range of 100 to 1000 nM. Take `N#CN1CCC2(CCN(c3cccc(-c4ccccc4)c3)C2=O)C1` (stereo not shown) [Example 49, 7-([1,1′-Biphenyl]-3-yl)-6-oxo-2,7-diazaspiro[4,4]nonane-2-carbonitrile]: the IC50 lay in the range of 100 to 1000 nM.

With `CCc1cccc(-c2cccc3c2CCN3C(=O)[C@@H]2CCN(C#N)C2)c1` [Example 50, (R)-3-(4-(3-Ethylphenyl)indoline-1-carbonyl)pyrrolidine-1-carbonitrile], the IC50 was in the range of 100 to 1000 nM.

Take `CC(C)N(C(=O)C1CCN(C#N)C1)c1nc(-c2ccccc2)cs1` (stereo not shown) [Example 7, 1-Cyano-N-isopropyl-N-(4-phenylthiazol-2-yl)pyrrolidine-3-carboxamide]: the half-inhibitory concentration (IC50) was 1000 to 10000 nM. Take `CN1CCN(C(=O)c2ccc(-c3ccc4c(c3)CCN4C(=O)C3(F)CCN(C#N)C3)cc2)CC1` (stereo not shown) [Example 38, 3-Fluoro-3-(5-(4-(4-methylpiperazine-1-carbonyl)phenyl)indoline-1-carbonyl)pyrrolidine-1-carbonitrile]: the IC50 was in the range of 1000 to 10000 nM. Regarding `N#CN1CC[C@@H](C(=O)N2CCc3cc(-c4ccccc4)ccc32)C1` [Example 17, (R)-3-(5-Phenylindoline-1-carbonyl)pyrrolidine-1-carbonitrile], the concentration for half-maximal inhibition (IC50) lay in the range of 1000 to 10000 nM. The result for `N#CN1CCC(F)(C(=O)N2CCc3cc(-c4cccnc4)ccc32)C1` (racemic) [Example 57, 3-Fluoro-3-(5-(pyridin-3-yl)indoline-1-carbonyl)pyrrolidine-1-carbonitrile] reads 100 to 1000 nM; that for `N#CN1CC[C@@H](C(=O)N2CCOc3c(-c4ccccc4)cccc32)C1` [Example 26, (R)-3-(8-Phenyl-3,4-dihydro-2H-benzo[b][1,4]oxazine-4-carbonyl)pyrrolidine-1-carbonitrile], 1000 to 10000 nM; that for `CN(C(=O)C1(F)CCN(C#N)C1)c1cc(-c2ccccc2)on1` (stereo not shown) [Example 33, 1-Cyano-3-fluoro-N-methyl-N-(5-phenylisoxazol-3-yl)pyrrolidine-3-carboxamide], 100 to 1000 nM.

`N#CN1CCC(F)(C(=O)N2CCc3cc(-c4ccnn4Cc4cccnc4)ccc32)C1` (stereo not shown) [Example 63, 3-Fluoro-3-(5-(1-(pyridin-3-ylmethyl)-H-pyrazol-5-yl)indoline-1-carbonyl)pyrrolidine-1-carbonitrile]: the IC50 lay within 1000 to 10000 nM. The result for `CN(C(=O)[C@H]1CCN(C#N)C1)c1ncc(-c2ccccc2)s1` [Example 3, (S)-1-Cyano-N-methyl-N-(5-phenylthiazol-2-yl)pyrrolidine-3-carboxamide] reads 100 to 1000 nM; that for `N#CN1CC[C@@](F)(C(=O)N2CCc3cc(-c4cccc(Cl)c4)cnc32)C1` [Example 55, (S)-3-(5-(3-Chlorophenyl)-2,3-dihydro-1H-pyrrolo[2,3-b]pyridine-1-carbonyl)-3-fluoropyrrolidine-1-carbonitrile], 100 to 1000 nM; that for `N#CN1CCC(F)(C(=O)N2CCc3cc(C(=O)NCc4ccccc4)ccc32)C1` (stereo not shown) [Example 67, N-Benzyl-1-(1-cyano-3-fluoropyrrolidine-3-carbonyl)indoline-5-carboxamide], 1000 to 10000 nM. With `N#CN1CCC(F)(C(=O)N2CCc3cc(-c4ccccc4)cnc32)C1` (stereo not shown) [Example 22, 3-Fluoro-3-(5-phenyl-2,3-dihydro-1H-pyrrolo[2,3-b]pyridine-1-carbonyl)pyrrolidine-1-carbonitrile] the figure was 100 to 1000 nM.

Values taken from patent publication US10640498B2, “Compounds” (MISSION THERAPEUTICS LIMITED, priority 2016, dated 2020).
